Experimental data from patent US20170342025A1, “ANTIMICROBIAL COMPOUNDS, COMPOSITIONS AND METHODS” (Swansea University, priority 2014, published 2017).
Like-named read-outs stand apart in the source and are kept apart here.

Assays:
[1] = test system: Escherichia coli (strain JM109); experiment: MIC determination against Escherichia coli (Andrews protocol); format: cell-based; details: for MIC: Escherichia coli, read-out: MIC E. coli
Description: (§1) Minimum Inhibitory Concentrations (MICs) for the compounds prepared were determined against Escherichia coli (strain JM109) and Staphylococcus aureus (strain 9518) using the protocols described by Andrews (J. Antimicrob. Chemother., 2001, 48, Suppl. S1, 5-16).

[2] = test system: Staphylococcus aureus (strain 9518); experiment: MIC determination against Staphylococcus aureus (Andrews protocol); format: cell-based; details: for MIC: Staphylococcus aureus, read-out: MIC S. aureus
Description: as §1

[3] = Staphylococcus aureus strain 9518

| Compound | MIC ([1]; Escherichia coli strain JM109) | MIC [2, 3] | MIC [1] | MIC [2] | further results |
| --- | --- | --- | --- | --- | --- |
| N=C(N)NCc1cccc(NS(=O)(=O)c2cccc(Cl)c2Cl)c1.O=C(O)C(F)(F)F [Compound 55g, Amino((3-((2,3-dichlorophenyl)sulfonamido)benzyl)amino)methaniminium 2,2,2-trifluoroacetate] | 32 to 100 µg/mL | 32 to 100 µg/mL | – | – | – |
| N=C(N)NOCc1cccc(-c2ccccc2)c1.O=C(O)C(F)(F)F [Compound 41a, 1-[(3-phenylphenyl)methoxy]guanidine 2,2,2-trifluoroacetate] | > 100 µg/mL | > 100 µg/mL | – | – | – |
| CN(Cc1cccc(OCc2cccc(Cl)c2Cl)c1)C(=N)N.Cl [Compound 10a, 1-({3-[(2,3-dichlorophenyl)methoxy]phenyl}methyl)-1-methylguanidine hydrochloride] | 32 to 100 µg/mL | 10 to 32 µg/mL | – | – | – |
| COCCN(Cc1cccc(OCc2cccc(Cl)c2Cl)c1)C(=N)N.O=C(O)C(F)(F)F [Compound 9b, 1-({3-[(2,3-dichlorophenyl)methoxy]phenyl}methyl)-1-(2-methoxyethyl) guanidine 2,2,2-trifluoroacetate] | 10 to 32 µg/mL | 10 to 32 µg/mL | – | – | – |
| Cl.N=C(N)N/N=C/c1nccn1Cc1cccc(Cl)c1 [Compound 61a, (E)-amino(2-((1-(3-chlorobenzyl)-1H-imidazol-2-yl)methylene)hydrazinyl) methaniminium chloride] | 32 to 100 µg/mL | 32 to 100 µg/mL | – | – | – |
| N=C(N)NCc1ccc(N)cc1.O=C(O)C(F)(F)F [Compound 53b, Amino((4-aminobenzyl)amino)methaniminium 2,2,2-trifluoroacetate] | – | – | 32 to 100 µg/mL | 32 to 100 µg/mL | – |
| N=C(N)Nc1ccc(OCc2ccc(Cl)cc2)cc1.O=C(O)C(F)(F)F [Compound 23b, 1-{4-[(4-chlorophenyl)methoxy]phenyl}guanidine 2,2,2-trifluoroacetate] | > 100 µg/mL | > 100 µg/mL | – | – | – |
| N=C(N)NCc1cccc(OCc2cccc(C(F)(F)F)c2)c1.O=C(O)C(F)(F)F [Compound 4i, 1-[(3-{[3-(trifluoromethyl)phenyl]methoxy}phenyl)methyl]guanidine 2,2,2-trifluoroacetate] | – | – | 1 to 10 µg/mL | 1 to 10 µg/mL | – |
| N=C(N)NCc1ccc(NS(=O)(=O)c2cccc(Cl)c2)cc1.O=C(O)C(F)(F)F [Compound 55a, Amino((4-((3-chlorophenyl)sulfonamido)benzyl)amino)methaniminium 2,2,2-trifluoroacetate] | 32 to 100 µg/mL | 32 to 100 µg/mL | – | – | – |
| Cl.N=C(N)N/N=C/c1cccn1Cc1ccc(Cl)cc1 [Compound 61f, (E)-Amino(2-((1-(4-chlorobenzyl)-1H-pyrrol-2-yl)methylene)hydrazinyl) methaniminium chloride] | 32 to 100 µg/mL | 10 to 32 µg/mL | – | – | – |
| N=C(N)NCc1cccc(NC(=O)c2ccccc2)c1.O=C(O)C(F)(F)F [Compound 57a, Amino((3-benzamidobenzyl)amino)methaniminium 2,2,2-trifluoroacetate] | – | – | 32 to 100 µg/mL | 32 to 100 µg/mL | – |
| COc1cccc(N2CCN(C(=N)N)CC2)c1.O=C(O)C(F)(F)F.O=C(O)C(F)(F)F [Compound 44b, 4-(3-methoxyphenyl)piperazine-1-carboximidamide bis-(2,2,2-trifluoroacetate)] | > 100 µg/mL | > 100 µg/mL | – | – | – |
| N=C(N)NCc1c(F)ccc(OCc2cccc(C(F)(F)F)c2)c1F.O=C(O)C(F)(F)F [Compound 4p, 1-[(2,6-difluoro-3-{[3-(trifluoromethyl)phenyl]methoxy}phenyl)methyl]guanidine 2,2,2-trifluoroacetate] | – | – | 1 to 10 µg/mL | 1 to 10 µg/mL | – |
| N=C(N)NCc1c(F)ccc(OCc2cccc(Cl)c2Cl)c1F.O=C(O)C(F)(F)F [Compound 4o, 1-({3-[(2,3-dichlorophenyl)methoxy]-2,6-difluorophenyl}methyl)guanidine 2,2,2-trifluoroacetate] | – | – | 1 to 10 µg/mL | 1 to 10 µg/mL | – |
| N=C(N)NCc1cccc(OCc2cccc(Cl)c2Cl)c1.O=C(O)C(F)(F)F [Compound 4g, 1-({3-[(2,3-dichlorophenyl)methoxy]phenyl}methyl)guanidine 2,2,2-trifluoroacetate] | – | – | 10 to 32 µg/mL | 10 to 32 µg/mL | – |
| Cl.N=C(N)N/N=C/c1cccc(OCc2cccc(Cl)c2)c1 [Compound 49e, (E)-Amino(2-(3-((3-chlorobenzyl)oxy)benzylidene)hydrazinyl)methaniminium chloride] | 1 to 10 µg/mL | 10 to 32 µg/mL | – | – | – |
| N=C(N)N1CCN(c2ccc(Cl)cc2)CC1.O=C(O)C(F)(F)F.O=C(O)C(F)(F)F [Compound 44a, 4-(4-chlorophenyl)piperazine-1-carboximidamide bis-(2,2,2-trifluoroacetate)] | > 100 µg/mL | > 100 µg/mL | – | – | – |
| COc1ccc(CNC(=N)N)cc1OCc1ccc(Cl)cc1.O=C(O)C(F)(F)F [Compound 4n, 1-({3-[(4-chlorophenyl)methoxy]-4-methoxyphenyl}methyl)guanidine 2,2,2-trifluoroacetate] | – | – | > 100 µg/mL | 32 to 100 µg/mL | – |

| Compound | MIC ([1]; Escherichia coli strain JM109) | MIC [2, 3] | MIC [1] | MIC [2] | further results |
| --- | --- | --- | --- | --- | --- |
| Cl.N=C(N)N/N=C/c1cccc(OCc2cccc(Cl)c2)c1Cl [Compound 51m, (E)-Amino(2-(2-chloro-3-((3-chlorobenzyl)oxy)benzylidene)hydrazinyl) methaniminium chloride] | 1 to 10 µg/mL | 10 to 32 µg/mL | – | – | – |
| N=C(N)NCc1cccc(OCc2ccc(Br)cc2)c1.O=C(O)C(F)(F)F [Compound 4j, 1-({3-[(4-bromophenyl)methoxy]phenyl}methyl)guanidine 2,2,2-trifluoroacetate] | – | – | 1 to 10 µg/mL | 10 to 32 µg/mL | – |
| N=C(N)NCc1cccc(OCc2cc(Cl)ccc2Cl)c1.O=C(O)C(F)(F)F [Compound 4f, 1-({3-[(2,5-dichlorophenyl)methoxy]phenyl}methyl)guanidine 2,2,2-trifluoroacetate] | – | – | 10 to 32 µg/mL | 1 to 10 µg/mL | – |
| N=C(N)NCc1ccc(NS(=O)(=O)c2ccc(Cl)cc2)cc1.O=C(O)C(F)(F)F [Compound 55b, Amino((4-((4-chlorophenyl)sulfonamido)benzyl)amino)methaniminium 2,2,2-trifluoroacetate] | 32 to 100 µg/mL | 32 to 100 µg/mL | – | – | – |
| Cl.N=C(N)N/N=C/c1nccn1Cc1cccc(C(F)(F)F)c1 [Compound 61c, (E)-Amino(2-((1-(3-(trifluoromethyl)benzyl)-1H-imidazol-2-yl)methylene) hydrazinyl)methaniminium chloride] | 32 to 100 µg/mL | 32 to 100 µg/mL | – | – | – |
| N=C(N)NCc1cccc(OCc2ccc(Cl)cc2)c1.O=C(O)C(F)(F)F [Compound 4b, 1-({3-[(4-chlorophenyl)methoxy]phenyl}methyl)guanidine 2,2,2-trifluoroacetate] | – | – | 1 to 10 µg/mL | 1 to 10 µg/mL | – |
| Cl.N=C(N)N/N=C/c1cccc(OCc2ccc(C(F)(F)F)cc2)c1 [Compound 49f, (E)-Amino(2-(3-((4-(trifluoromethyl)benzyl)oxy)benzylidene)hydrazinyl) methaniminium chloride] | – | – | – | – | MIC E. coli ([1]; Escherichia coli strain JM109): ++ (MIC 10-32 μg/mL); MIC S. aureus [2, 3]: +++ (MIC 1-10 μg/mL) |
| N=C(N)N1CCc2ccc(Br)cc2C1.O=C(O)C(F)(F)F [Compound 26, 7-bromo-1,2,3,4-tetrahydroisoquinoline-2-carboximidamid 2,2,2-trifluoroacetate] | > 100 µg/mL | > 100 µg/mL | – | – | – |
| N=C(N)NCc1cccc(NS(=O)(=O)c2cccc(Cl)c2)c1.O=C(O)C(F)(F)F [Compound 55e, Amino((3-((3-chlorophenyl)sulfonamido)benzyl)amino)methaniminium 2,2,2-trifluoroacetate] | 32 to 100 µg/mL | 32 to 100 µg/mL | – | – | – |
| N=C(N)NCc1cccc(N)c1.O=C(O)C(F)(F)F [Compound 53a, Amino((3-aminobenzyl)amino)methaniminium 2,2,2-trifluoroacetate] | – | – | 32 to 100 µg/mL | 32 to 100 µg/mL | – |
| N=C(N)NCc1ccc(OCc2ccc(Cl)cc2)cc1.O=C(O)C(F)(F)F [Compound 19b, 1-(4-((4-chlorobenzyl)oxy)benzyl)guanidine 2,2,2-trifluoroacetate] | > 100 µg/mL | 32 to 100 µg/mL | – | – | – |
| N=C(N)NCc1ccc(OCc2ccccc2)cc1.O=C(O)C(F)(F)F [Compound 19a, 1-(4-(benzyloxy)benzyl)guanidine 2,2,2-trifluoroacetate] | > 100 µg/mL | 10 to 32 µg/mL | – | – | – |
| N=C(N)NCc1ccc(NS(=O)(=O)c2cccc(Cl)c2Cl)cc1.O=C(O)C(F)(F)F [Compound 55c, Amino((4-((2,3-dichlorophenyl)sulfonamido)benzyl)amino)methaniminium 2,2,2-trifluoroacetate] | 32 to 100 µg/mL | 32 to 100 µg/mL | – | – | – |
| N=C(N)NC(=O)c1cccc(OCc2ccccc2)c1.O=C(O)C(F)(F)F [Compound 47, 3-(benzyloxy)-N-carbamimidoylbenzamide 2,2,2-trifluoroacetate] | – | – | 32 to 100 µg/mL | 10 to 32 µg/mL | – |
| N=C(N)NCc1cccc(NS(=O)(=O)c2ccc(Cl)cc2)c1.O=C(O)C(F)(F)F [Compound 55f, Amino((3-((4-chlorophenyl)sulfonamido)benzyl)amino)methaniminium 2,2,2-trifluoroacetate] | 32 to 100 µg/mL | 32 to 100 µg/mL | – | – | – |
| N=C(N)NCc1cccc(NS(=O)(=O)c2cccc(C(F)(F)F)c2)c1.O=C(O)C(F)(F)F [Compound 55h, Amino((3-((3-(trifluoromethyl)phenyl)sulfonamido)benzyl)amino) methaniminium 2,2,2-trifluoroacetate] | 32 to 100 µg/mL | 32 to 100 µg/mL | – | – | – |
| N=C(N)NCc1cccc(OCc2ccc(Cl)c(Cl)c2)c1.O=C(O)C(F)(F)F [Compound 4e, 1-({3-[(3,4-dichlorophenyl)methoxy]phenyl}methyl)guanidine 2,2,2-trifluoroacetate] | – | – | 10 to 32 µg/mL | 1 to 10 µg/mL | – |
| Cl.N=C(N)N/N=C/c1cccn1Cc1cccc(Cl)c1 [Compound 61e, (E)-Amino(2-((1-(3-chlorobenzyl)-1H-pyrrol-2-yl)methylene)hydrazinyl) methaniminium chloride] | 32 to 100 µg/mL | 10 to 32 µg/mL | – | – | – |
